Laboratory results as given in patent publication US20150005390A1, “METHOD FOR TREATING INFLAMMATORY DISORDER” (National Defense Medical Center, priority 2013, published 2015).

Experiments:
[1] = test system: IL-1β precursor expression in J774A.1 cells; assay: IL-1β precursor expression, Western blot in LPS-activated macrophages; type: cell-based, mouse; details: J774A.1 cells incubated with creosol 30 minutes, then LPS 6 hours; FIG. 2E
Protocol: (§1) Whole cell lysates were separated by SDS-PAGE and electrotransferred to a PVDF (polyvinylidene fluoride) membrane. The membranes were incubated in a blocking solution—5% nonfat milk in phosphate buffered saline with 0.1% Tween 20—at room temperature for 1 hour. Each membrane was incubated with a specific primary antibody, at room temperature, for 2 hours. After washing the membrane three times in PBS with 0.1% Tween 20, it was incubated with an HRP-conjugated secondary antibody directed against the primary antibody. The membrane was developed by an enhanced chemiluminescence Western blot detection system.
(§2) J774A.1 cells (1×10^6/ml) were primed with LPS for 5.5 hours, followed by treatment with creosol for 30 minutes, and then stimulated with ATP (5 mM) for an additional 30 minutes. […] Data is expressed as the mean±SE from three separate experiments (wherein *p<0.05). In FIG. 2B, the expression of caspase-1 (p45) and cleaved caspase-1 (p10) were analyzed by Western blot. […] Data is expressed as the mean±SE from three separate experiments (wherein *p<0.05). The expressions of caspase-1 (p45) and cleaved caspase-1 (p10) were analyzed by Western blot, and the result of one of the three separate experiments is shown in FIG. 2D. […] The expressions of NLRP3 inflammasomes and IL-1β precursor were analyzed by Western blot. […]

[2] = test system: NO production in RAW 264.7 macrophages; assay: NO inhibitory assay (Griess reaction) in LPS-activated macrophages; type: cell-based, murine; details: RAW 264.7 macrophages pretreated with creosol 30 minutes, then LPS 1 μg/ml 24 hours; FIG. 1A
Protocol: RAW 264.7 cells were seeded in 24-well plates at a density of 5×10^5 cells/ml, and then incubated with or without LPS (1 μg/ml) in the absence or presence of tested samples for 24 hours. The effects of creosol on NO production were measured indirectly by the analysis of nitrite levels, using the Griess reaction. The effects of creosol on the expression of inflammatory mediators were analyzed. In the present invention, RAW 264.7 macrophages (5×10^5/ml) were pretreated with creosol for 30 minutes, followed by stimulation with LPS (1 μg/ml) for 24 hours. NO concentration in culture medium was assayed by the Griess reaction.

[3] = test system: cultured rat hippocampal neurons; details: cultured rat hippocampal neurons exposed to N-methyl-D-aspartate or H2O2; cited from earlier work
[4] = test system: NLRP3 expression in J774A.1 cells; assay: NLRP3 expression, Western blot in LPS-activated macrophages; type: cell-based, mouse; details: J774A.1 cells incubated with creosol 30 minutes, then LPS 6 hours; FIG. 2E
Protocol: as §1, §2

[5] = test system: ovariectomy-induced bone loss; details: through inhibiting osteoclastogenesis; cited from earlier work
[6] = test system: IL-6 expression in RAW 264.7 macrophages; assay: IL-6 ELISA in LPS-activated macrophages; type: cell-based, murine; details: RAW 264.7 macrophages pretreated with creosol 30 minutes, then LPS 1 μg/ml 24 hours; FIG. 1B
Protocol: (§3) Cells were seeded in 6-well plates at a density of 5×10^5 cells/ml, and then incubated with or without LPS (1 μug/ml) in the absence or presence of tested samples for 24 hours. The effects of the tested samples on TNF-α, IL-6 and IL-1β production were measured by ELISA according to the manufacturer's protocol. Briefly, 50 μl of biotinylated antibody reagent and 50 μl of supernatant were added to an anti-mouse TNF-α, IL-6 and IL-1β precoated stripwell plate, and incubated at room temperature for 2 hours. After washing the plate three times with the washing buffer, 100 μl of diluted streptavidin-HRP (horseradish peroxidase) concentrate was added to each well and the plate was incubated at room temperature for 30 minutes. The washing process was repeated; then, 100 μl of a premixed tetramethylbenzidine substrate solution was added to each well and developed at room temperature, in the dark, for 30 minutes. Following the addition of 100 μl of stop solution to each well to stop the reaction, the absorbance of the plate was measured by a microplate reader at a 450 nm wavelength. As shown in FIG. 1B and FIG. 1C, RAW 264.7 macrophages (5×10^5/ml) were pretreated with creosol for 30 minutes, followed by stimulating with LPS (1 μg/ml) for 24 hours. IL-6 and TNF-α concentration in culture medium was assayed by ELISA.

[7] = test system: IL-1β secretion in J774A.1 cells; assay: IL-1β secretion ELISA in ATP stimulated LPS-primed macrophages (NLRP3 inflammasome activation); type: cell-based, mouse
Protocol: Cells were seeded in 6-well plates at a density of 5×10^5 cells/ml, and then incubated with or without LPS (1 μug/ml) in the absence or presence of tested samples for 24 hours. The effects of the tested samples on TNF-α, IL-6 and IL-1β production were measured by ELISA according to the manufacturer's protocol. Briefly, 50 μl of biotinylated antibody reagent and 50 μl of supernatant were added to an anti-mouse TNF-α, IL-6 and IL-1β precoated stripwell plate, and incubated at room temperature for 2 hours. […] Following the addition of 100 μl of stop solution to each well to stop the reaction, the absorbance of the plate was measured by a microplate reader at a 450 nm wavelength.
as §2

[8] = test system: TNF-α expression in RAW 264.7 macrophages; assay: TNF-α ELISA in LPS-activated macrophages; type: cell-based, murine; details: RAW 264.7 macrophages pretreated with creosol 30 minutes, then LPS 1 μg/ml 24 hours; FIG. 1C
Protocol: as §3

[9] = test system: caspase-1 activation in J774A.1 cells; assay: Caspase-1 activation, Western blot of p10 subunit in ATP stimulated LPS-primed macrophages; type: cell-based, mouse; details: then ATP 30 minutes
Protocol: as §1, §2

In the case of COc1cc(C)ccc1O [creosol, 2-methoxy-4-methylphenol], the IL-1β precursor expression [1] is listed as “significantly inhibited the IL-1[…] precursor expression”, the “expression of NO” value [2] is listed as “inhibited in creosol-pretreated cells in a dose-dependent manner” and the “prevention of cell death of neurons” value [3] is listed as “able to prevent the cell death”. The NLRP3 expression [4] was “inhibited NLRP3 expression slightly”, the “prevention of ovariectomy-induced bone loss” value [5] was “able to prevent ovariectomy-induced bone loss” and the IL-6 expression [6] was “able to inhibit IL-6 expression in a dose-dependent manner”. The IL-1β secretion ([7]; J774A.1 cells incubated with creosol 30 minutes before LPS-priming, washed out, then ATP 30 minutes, FIG. 2C) was “inhibited IL-1β secretion in a dose-dependent fashion”, the IL-1β secretion ([7]; LPS-primed J774A.1 cells incubated with creosol 30 minutes, then ATP 5 mM 30 minutes, FIG. 2A) was “inhibited IL-1β secretion slightly” and the TNF-α expression [8] was “not able to inhibit TNF-α expression”. For the same compound, the caspase-1 activation ([9]; J774A.1 cells incubated with creosol 30 minutes before LPS-priming, washed out, FIG. 2D) was “inhibited by creosol in a dose-dependent fashion” and the caspase-1 activation ([9]; LPS-primed J774A.1 cells incubated with creosol 30 minutes, FIG. 2B) was “inhibited caspase-1 activation slightly”.
